#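 Protocol summary: plate cells (96-well), add compound at 5 concentrations, incubate 48 h, interpolate endpoints linearly. At the TGI there is no net growth.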
# Columns and labels:
# Assay in all cases: NCI tumour cell line growth inhibition, 48 h
# 786-0 renal = tested on: 786-0 renal
# A498 renal = tested on: A498 renal
# A549 NSCLC = tested on: A549 NSCLC
# ACHN renal = tested on: ACHN renal
# BT-549 breast = tested on: BT-549 breast
# CAKI-1 renal = tested on: CAKI-1 renal
# CCRF-CEM leukemia = tested on: CCRF-CEM leukemia
# COLO 205 colon = tested on: COLO 205 colon
# DU-145 prostate = tested on: DU-145 prostate
# EKVX NSCLC = tested on: EKVX NSCLC
# HCC-2998 colon = tested on: HCC-2998 colon
# HCT-116 colon = tested on: HCT-116 colon
# HCT-15 colon = tested on: HCT-15 colon
# HL-60(TB) leukemia = tested on: HL-60(TB) leukemia
# HOP-62 NSCLC = tested on: HOP-62 NSCLC
# HOP-92 NSCLC = tested on: HOP-92 NSCLC
# HS 578T breast = tested on: HS 578T breast
# HT29 colon = tested on: HT29 colon
# IGROV1 ovarian = tested on: IGROV1 ovarian
# K-562 leukemia = tested on: K-562 leukemia
# KM12 colon = tested on: KM12 colon
# LOX IMVI melanoma = tested on: LOX IMVI melanoma
# M14 melanoma = tested on: M14 melanoma
# MALME-3M melanoma = tested on: MALME-3M melanoma
# MCF7 breast = tested on: MCF7 breast
# MDA-MB-231 breast = tested on: MDA-MB-231 breast
# MDA-MB-435 = tested on: MDA-MB-435
# MDA-N = tested on: MDA-N
# NCI-H226 lung = tested on: NCI-H226 lung
# NCI-H23 lung = tested on: NCI-H23 lung
# NCI-H460 lung = tested on: NCI-H460 lung
# NCI-H522 lung = tested on: NCI-H522 lung
# NCI/ADR-RES ovarian = tested on: NCI/ADR-RES ovarian
# OVCAR-3 ovarian = tested on: OVCAR-3 ovarian
# OVCAR-4 ovarian = tested on: OVCAR-4 ovarian
# OVCAR-5 ovarian = tested on: OVCAR-5 ovarian
# OVCAR-8 ovarian = tested on: OVCAR-8 ovarian
# PC-3 prostate = tested on: PC-3 prostate
# RPMI-8226 leukemia = tested on: RPMI-8226 leukemia
# RXF 393 renal = tested on: RXF 393 renal
# SF-268 CNS = tested on: SF-268 CNS
# SF-295 CNS = tested on: SF-295 CNS
# SK-MEL-2 melanoma = tested on: SK-MEL-2 melanoma
# SK-MEL-28 melanoma = tested on: SK-MEL-28 melanoma
# SK-MEL-5 melanoma = tested on: SK-MEL-5 melanoma
# SK-OV-3 ovarian = tested on: SK-OV-3 ovarian
# SN12C renal = tested on: SN12C renal
# SNB-19 CNS = tested on: SNB-19 CNS
# SNB-75 CNS = tested on: SNB-75 CNS
# SR leukemia = tested on: SR leukemia
# SW-620 colon = tested on: SW-620 colon
# T-47D breast = tested on: T-47D breast
# TK-10 renal = tested on: TK-10 renal
# U251 CNS = tested on: U251 CNS
# UACC-257 melanoma = tested on: UACC-257 melanoma
# UACC-62 melanoma = tested on: UACC-62 melanoma
# UO-31 renal = tested on: UO-31 renal
# MOLT-4 leukemia = tested on: MOLT-4 leukemia
# SF-539 CNS = tested on: SF-539 CNS
smiles,measurement,setting,value
S=C1NCN2CCN(CC2)CNC(=S)C(=S)NCN2CCN(CC2)CNC1=S,TGI,786-0 renal,> 100 µM
same,TGI,A498 renal,> 100 µM
same,TGI,A549 NSCLC,> 100 µM
same,TGI,ACHN renal,> 100 µM
same,TGI,BT-549 breast,> 100 µM
same,TGI,CAKI-1 renal,> 100 µM
same,TGI,CCRF-CEM leukemia,62.3 µM
same,TGI,COLO 205 colon,> 100 µM
same,TGI,DU-145 prostate,> 100 µM
same,TGI,EKVX NSCLC,> 100 µM
same,TGI,HCC-2998 colon,> 100 µM
same,TGI,HCT-116 colon,> 100 µM
same,TGI,HCT-15 colon,> 100 µM
same,TGI,HL-60(TB) leukemia,> 100 µM
same,TGI,HOP-62 NSCLC,> 100 µM
same,TGI,HOP-92 NSCLC,> 100 µM
same,TGI,HS 578T breast,> 100 µM
same,TGI,HT29 colon,> 100 µM
same,TGI,IGROV1 ovarian,> 100 µM
same,TGI,K-562 leukemia,> 100 µM
same,TGI,KM12 colon,> 100 µM
same,TGI,LOX IMVI melanoma,56.4 µM
same,TGI,M14 melanoma,> 100 µM
same,TGI,MALME-3M melanoma,> 100 µM
same,TGI,MCF7 breast,> 100 µM
same,TGI,MDA-MB-231 breast,> 100 µM
same,TGI,MDA-MB-435,> 100 µM
same,TGI,MDA-N,> 100 µM
same,TGI,NCI-H226 lung,> 100 µM
same,TGI,NCI-H23 lung,> 100 µM
same,TGI,NCI-H460 lung,46.3 µM
same,TGI,NCI-H522 lung,> 100 µM
same,TGI,NCI/ADR-RES ovarian,> 100 µM
same,TGI,OVCAR-3 ovarian,98.9 µM
same,TGI,OVCAR-4 ovarian,> 100 µM
same,TGI,OVCAR-5 ovarian,> 100 µM
same,TGI,OVCAR-8 ovarian,> 100 µM
same,TGI,PC-3 prostate,> 100 µM
same,TGI,RPMI-8226 leukemia,97.3 µM
same,TGI,RXF 393 renal,> 100 µM
same,TGI,SF-268 CNS,> 100 µM
same,TGI,SF-295 CNS,> 100 µM
same,TGI,SK-MEL-2 melanoma,> 100 µM
same,TGI,SK-MEL-28 melanoma,> 100 µM
same,TGI,SK-MEL-5 melanoma,> 100 µM
same,TGI,SK-OV-3 ovarian,> 100 µM
same,TGI,SN12C renal,> 100 µM
same,TGI,SNB-19 CNS,> 100 µM
same,TGI,SNB-75 CNS,> 100 µM
same,TGI,SR leukemia,> 100 µM
same,TGI,SW-620 colon,> 100 µM
same,TGI,T-47D breast,> 100 µM
same,TGI,TK-10 renal,> 100 µM
same,TGI,U251 CNS,> 100 µM
same,TGI,UACC-257 melanoma,> 100 µM
same,TGI,UACC-62 melanoma,> 100 µM
same,TGI,UO-31 renal,> 100 µM
CN(C)CCCN1c2ccccc2CCc2cccc([N+](=O)[O-])c21,TGI,786-0 renal,28.6 µM
same,TGI,A498 renal,37.2 µM
same,TGI,A549 NSCLC,> 100 µM
same,TGI,ACHN renal,53.6 µM
same,TGI,BT-549 breast,61 µM
same,TGI,CAKI-1 renal,48.4 µM
same,TGI,CCRF-CEM leukemia,14.7 µM
same,TGI,COLO 205 colon,33.9 µM
same,TGI,DU-145 prostate,32.3 µM
same,TGI,EKVX NSCLC,> 100 µM
same,TGI,HCC-2998 colon,31.5 µM
same,TGI,HCT-116 colon,28.9 µM
same,TGI,HCT-15 colon,29.6 µM
same,TGI,HL-60(TB) leukemia,30.1 µM
same,TGI,HOP-62 NSCLC,30 µM
same,TGI,HOP-92 NSCLC,45.5 µM
same,TGI,HS 578T breast,70.5 µM
same,TGI,HT29 colon,29.7 µM
same,TGI,IGROV1 ovarian,32.3 µM
same,TGI,K-562 leukemia,29.1 µM
same,TGI,KM12 colon,30.9 µM
same,TGI,LOX IMVI melanoma,30.2 µM
same,TGI,M14 melanoma,29.2 µM
same,TGI,MALME-3M melanoma,32.5 µM
same,TGI,MCF7 breast,30.7 µM
same,TGI,MDA-MB-231 breast,47.6 µM
same,TGI,MDA-MB-435,30.3 µM
same,TGI,MDA-N,29.7 µM
same,TGI,MOLT-4 leukemia,29.8 µM
same,TGI,NCI-H226 lung,69.5 µM
same,TGI,NCI-H23 lung,> 100 µM
same,TGI,NCI-H460 lung,32.1 µM
same,TGI,NCI-H522 lung,30.6 µM
same,TGI,NCI/ADR-RES ovarian,32.9 µM
same,TGI,OVCAR-3 ovarian,29.8 µM
same,TGI,OVCAR-4 ovarian,45.2 µM
same,TGI,OVCAR-5 ovarian,> 100 µM
same,TGI,OVCAR-8 ovarian,29.3 µM
same,TGI,PC-3 prostate,34.5 µM
same,TGI,RPMI-8226 leukemia,23.8 µM
same,TGI,SF-268 CNS,64.5 µM
same,TGI,SF-295 CNS,30.1 µM
same,TGI,SF-539 CNS,31.6 µM
same,TGI,SK-MEL-2 melanoma,65.6 µM
same,TGI,SK-MEL-28 melanoma,26.1 µM
same,TGI,SK-MEL-5 melanoma,30 µM
same,TGI,SK-OV-3 ovarian,85.9 µM
same,TGI,SN12C renal,52.9 µM
same,TGI,SNB-19 CNS,> 100 µM
same,TGI,SNB-75 CNS,24.4 µM
same,TGI,SR leukemia,28.5 µM
same,TGI,SW-620 colon,36 µM
same,TGI,T-47D breast,27.8 µM
same,TGI,TK-10 renal,37.2 µM
same,TGI,U251 CNS,32.9 µM
same,TGI,UACC-257 melanoma,34.7 µM
same,TGI,UACC-62 melanoma,36.2 µM
same,TGI,UO-31 renal,41.7 µM

# — PubChem BioAssay (NCI)
